Laboratory results published in ChEMBL document CHEMBL5608174, “Synthesis and biological evaluation of 4-phenyl-5-quinolinyl substituted isoxazole analogues as potent cytotoxic and tubulin polymerization inhibitors against ESCC” (Eur J Med Chem, 2024).
Active and inactive are the calls of the source. The calls are words filed in the database; no cut-off is given here.

How the values were obtained:
KYSE-70 cell line [1] = assay: Induction of apoptosis in human KYSE-70 cells assessed as late apoptotic cells at 20 nmol/L incubated for 48 hrs by Annexin V-FITC/PI staining based flow cytometry analysis (reference value: 3.01%); format: functional
KYSE-30 [2] = assay: Upregulation of p-Histone H3 level in human KYSE-30 cells at 5 to 20 nmol/L by Western blot analysis; format: functional, cell-based; conditions: dose 5-20 nmol/L
KYSE-30 [3] = assay: Induction of morphological changes in human KYSE-30 cells assessed as increase in proportion of dead cells at 5 to 20 nmol/L incubated for 48 hrs by Calcein AM/PI staining based inverted fluorescence microscopic analysis; format: functional, cell-based; conditions: dose 5-20 nmol/L
KYSE-30 [4] = assay: Induction of apoptosis in human KYSE-30 cells assessed as late apoptotic cells at 20 nmol/L incubated for 48 hrs by Annexin V-FITC/PI staining based flow cytometry analysis (reference value: 5.27 %); format: functional
KYSE-70 cell line [5] = assay: Effect on nuclear replication in human KYSE-70 cells at 5 to 20 nmol/L incubated for 24 hrs by DAPI staining based fluorescence microscopic analysis; format: functional, cell-based; conditions: dose 5-20 nmol/L

`COc1ccc(-c2cnoc2-c2cc(C)nc3ccccc23)cc1` was tested, and the Activity (KYSE-70 cell line [1]) was 17.48%, the Activity (KYSE-30 [2]) was “Active” and the Activity (KYSE-30 [3]) was “Active”. For the same compound, the Activity (KYSE-30 [4]) was 10.13% and the Activity (KYSE-70 cell line [5]) was “inactive”.
